PubChem BioAssay (NCI)
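These data come from cells grown in 96-well plates and exposed to compound for 48 hours at five concentrations. TGI marks complete inhibition of growth.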

Tests used:
Assay in all cases: inhibition of tumour cell growth, NCI panel, 48 h
LOX IMVI melanoma = system: LOX IMVI melanoma
T-47D breast = system: T-47D breast
SK-MEL-5 melanoma = system: SK-MEL-5 melanoma
RXF 393 renal = system: RXF 393 renal
SNB-75 CNS = system: SNB-75 CNS
MDA-N = system: MDA-N
HS 578T breast = system: HS 578T breast
IGROV1 ovarian = system: IGROV1 ovarian
PC-3 prostate = system: PC-3 prostate
MCF7 breast = system: MCF7 breast
RPMI-8226 leukemia = system: RPMI-8226 leukemia
SF-539 CNS = system: SF-539 CNS
M14 melanoma = system: M14 melanoma
MDA-MB-231 breast = system: MDA-MB-231 breast
NCI-H522 lung = system: NCI-H522 lung
HOP-62 NSCLC = system: HOP-62 NSCLC
A549 NSCLC = system: A549 NSCLC
EKVX NSCLC = system: EKVX NSCLC
SK-OV-3 ovarian = system: SK-OV-3 ovarian

Row | Compound | TGI (LOX IMVI melanoma) [µM] | TGI (T-47D breast) [µM] | TGI (SK-MEL-5 melanoma) [µM] | TGI (RXF 393 renal) [µM] | TGI (SNB-75 CNS) [µM] | TGI (MDA-N) [µM] | TGI (HS 578T breast) [µM] | TGI (IGROV1 ovarian) [µM] | TGI (PC-3 prostate) [µM] | TGI (MCF7 breast) [µM] | TGI (RPMI-8226 leukemia) [µM] | TGI (SF-539 CNS) [µM] | TGI (M14 melanoma) [µM] | TGI (MDA-MB-231 breast) [µM] | TGI (NCI-H522 lung) [µM] | TGI (HOP-62 NSCLC) [µM] | TGI (A549 NSCLC) [µM] | TGI (EKVX NSCLC) [µM] | TGI (SK-OV-3 ovarian) [µM]
1 | NC(=O)N/N=C\CC(O)(C(F)(F)Cl)C(F)(F)Cl | > 10 | > 10 | > 10 | > 10 | > 10 | > 10 | > 10 | > 10 | > 10 | > 10 | > 10 | > 10 | > 10 | > 10 | > 10 | > 10 | > 10 | > 10 | > 10
2 | O=C(N/C(=C\c1ccccc1)c1nc2ccccc2c(=O)o1)c1ccccc1 | > 100 | > 100 | > 100 | > 100 | > 86.3 | > 100 | 75.7 | > 100 | > 100 | > 100 | > 100 | > 100 | > 100 | > 71.9 | > 100 | > 100 | > 100 | > 100 | > 100
3 | CN(C)c1ccc(N=C2N=C(Nc3ccccc3)C(=Nc3ccccc3)S2)cc1 | > 100 | > 100 | > 100 | > 100 | 81.4 | > 100 | > 100 | > 100 | > 100 | > 100 |  | > 100 | > 100 | > 100 | > 100 | > 100 | > 100 | > 100 | > 100
4 | O=C1N[C@H]2C(=O)c3c(Br)sc(Br)c3[C@H]2O1 | 11.4 | 55 | 27.7 | 10.4 | 31.4 | 20.1 | 58.6 | 25.3 | 16.4 | 25.4 | > 45 | 32.1 | 10.4 | 22.4 | 3.22 | 44.5 | 40.4 | 13 | 34.7
5 | CCS1=C2C(=O)CC(C)(C)CC2=Nc2ccccc21 (centres undefined) | > 100 | > 100 | > 100 | > 100 | > 100 | > 100 | > 100 | > 100 | > 100 | > 100 | > 100 |  | > 100 | > 100 | > 100 | > 100 | > 100 | > 100 | > 100
6 | Fc1cc2nc3n(c2cc1F)C(c1c(F)cccc1F)SC3 (centres undefined) | > 100 | > 100 | 34.6 | > 100 | > 100 | > 100 | > 100 | > 100 | > 100 | > 100 | > 100 | > 100 | 81.5 | > 100 | > 100 | > 100 | > 100 |  | > 100
7 | COC(=O)CN(CC(=O)NCCNC(=O)OC(C)(C)C)C1CCCCC1N(CC(=O)OC)CC(=O)OC (centres undefined) | > 100 | > 100 | > 100 |  |  | > 100 | > 100 | > 100 | > 100 | > 100 | > 100 | > 100 |  | > 100 | > 100 | > 100 | > 100 | > 100 | > 100
8 | CC(C(=O)NCNC(=O)c1ccccc1)C(=O)Nc1ccccc1 (centres undefined) |  | > 100 | > 100 | > 100 | > 100 | > 100 | > 100 | > 100 | > 100 | > 100 | > 100 | > 100 | > 100 | > 100 | > 100 |  | > 100 | > 100 | > 100
9 | S=C(NCCc1ccccn1)N/N=C(\c1ccccc1)c1ccccn1 | 36.1 | > 75.7 | 40.2 | 52.8 | > 78 | > 100 | > 100 |  | > 100 | > 100 | > 58 | 27.1 | > 100 | > 100 | > 100 | > 50.1 | > 100 | > 71.6 | > 66.2
10 | Cn1c(=O)c2c(nc3n2CCCC(=O)N3CCCCl)n(C)c1=O | > 100 | > 100 | > 100 | > 100 | > 100 | > 100 | > 100 | > 100 | > 100 | > 100 | > 100 |  | > 100 | > 100 | > 100 | > 100 | > 100 | > 100 | > 100
11 | COc1ccc(C2(CC(C)C)CCNC2)cc1OC (centres undefined) | > 100 | > 100 | > 100 | > 100 | 86.3 | > 100 | > 100 | > 100 | > 100 | > 100 | > 100 |  | > 100 | > 100 | > 100 | > 100 | > 100 | > 100 | > 100
12 | CCC1C(NC(=O)OC)C(=O)N1[C@@H](C)c1ccccc1 (some centres undefined) | > 100 | > 100 | > 100 | > 100 | > 100 | > 100 | > 100 | > 100 | > 100 | > 100 | > 100 | > 100 | > 100 | > 100 | > 100 | > 100 |  | > 100 | > 100
13 | CCCCCCCCCCC/C=C(/C(=O)CCCO[Si](C)(C)C(C)(C)C)C(=O)OC | > 100 | > 100 | > 100 | > 100 | > 100 | > 100 | > 100 | > 100 | > 100 | > 100 | > 100 | > 100 | > 100 | > 100 | > 100 | > 100 |  | > 100 | > 100
